What was measured:
[1] = test system: bacteria causing the soft rot (Erwinia carotovora); experiment: Inhibition test of growth of bacteria causing soft rot, Reference Test Example 1; type: cell-based; settings: for formed colonies (growth state), grade: PSA medium, 25 degrees Celsius, 4 days
Description: (§1) An inhibition test of the growth of bacteria causing the soft rot was done, when a control agent was directly applied to the bacteria causing the soft rot. A given volume of each pesticide of cyazofamid (RANMAN 400SC [trade name] manufactured by Ishihara Sangyo Kaisha, Ltd.), amisulbrom (LEIMAY FLOWABLE [trade name], manufactured by Nissan Chemical Industries, Ltd.) and streptomycin (Mycin Wettable powder [trade name] manufactured by Hokko Chemical Industry Co., Ltd.) was added together with a suspension of the bacteria causing the soft rot (Erwinia carotovora) to a preliminarily dissolved PSA culture medium (55 degrees Celsius) for subsequent thorough agitation, which was then spread on a plate for culturing at 25 degrees Celsius for 4 days, to examine the growth state. Subsequently, the formed colonies were examined according to the following three grades. • +: at the same level as the level of non-treated lot.
(§2) Plus or minus: apparently less than the colonies of the non-treated lot. • −: almost no colonies observed.

[2] = test system: bacteria causing the soft rot (Erwinia carotovora); experiment: Inhibition test of growth of bacteria causing soft rot, Reference Test Example 5; type: cell-based; settings: for formed colonies (growth state), grade: PSA medium, 27 degrees Celsius, 2 days
Description: as §1, with “mepanipyrim (Flupika FL” for “cyazofamid (RANMAN 400SC”, “Nippon Soda Co.,” for “Ishihara Sangyo Kaisha, Ltd.), amisulbrom (LEIMAY FLOWABLE [trade name], manufactured by Nissan Chemical Industries,”, “27” for “25”, “2” for “4”
as §2

[3] = test system: bacteria causing the soft rot (Erwinia carotovora); experiment: Inhibition test of growth of bacteria causing soft rot, Reference Test Example 6; type: cell-based; settings: for formed colonies (growth state), grade: PSA medium, 27 degrees Celsius, 3 days
From the text: as §1, with “fludioxonil (Seibia FL” for “cyazofamid (RANMAN 400SC”, “Syngenta Japan K.K.), iminoctadine albesilate salt (Bellkute WP” for “Ishihara Sangyo Kaisha, Ltd.), amisulbrom (LEIMAY FLOWABLE”, “Nippon Soda Co., Ltd.), iprodione (Rovral WP [trade name] manufactured by Bayer Crop Science Co., Ltd.),” for “Nissan Chemical Industries, Ltd.)”, “27” for “25”, “3” for “4”
as §2

[4] = test system: soft rot of Chinese cabbage; experiment: Test for controlling soft rot of Chinese cabbage, Example 2 / Comparative Example 2 (field, cultivar Harebutai 65); type: in vivo; settings: 1/1000 dilution, 300 L/10a sprayed twice on stems and leaves, 64 days after start
From the text: Frequency of the disease=[sigma(number of plants with the onset of the disease at each severity level*index of the onset of the disease)/(plants examined*4)]*100
Disease control value=[1-(frequency of the disease in the treated lot/frequency of the disease in the non-treated lot)]*100
• 0: No onset • 1: Onset in some of outer leaves (shippable) • 2: Onset in outer leaves and some of head leaves (by removing damaged parts, the resulting cabbage can be shipped as small cabbage but is ranked as grade B). • 3: Most of head leaves are inflicted with the onset of the disease or with severer damages (not shippable) • 4: Whole cabbage plant is inflicted with the onset of the disease and is dead.
200 g/l Azoxystrobin (Amistar 20 FLOWABLE [trade name], manufactured by Syngenta Japan K.K.) was adjusted to 500 g ai/10a (0.5 g/m^2, 2500 ml Product/10a) as the amount of the active ingredient and to 150 L/10a as the volume of diluent water.
30% w/w triflumizol (TRIFUMIN WP [trade name], manufactured by Nippon Soda Co., Ltd.) was adjusted to 500 g ai/10a (0.5 g/m^2, 1667 g Product/10a) as the amount of the active ingredient and to 150 L/10a as the volume of diluent water.
100 g/1 cyazofamid (RANMAN PLOWABLE [trade name], manufactured by Ishihara Sangyo Kaisha, Ltd.) was adjusted to 500 g ai/10a (0.5 g/m^2, 5000 ml Product/10a) as the amount of the active ingredient and to 150 L/10a as the volume of diluent water.
50% w/w penthiopyrad (GAIA WG [trade name], manufactured by Mitsui Chemicals Agro, Inc.) was adjusted to 500 g ai/10a (0.5 g/m^2, 1000 g Product/10a) as the amount of the active ingredient and to 150 L/10a as the volume of diluent water.
50 g/l flusulfamide (SCABLOCK SC [trade name], manufactured by Mitsui Chemicals Agro, Inc.) was adjusted to 500 g ai/10a (0.5 g/m^2, 10000 ml Product/10a) as the amount of the active ingredient and to 150 L/10a as the volume of diluent water.
400 g/1 chlorothalonil (Daconil 1000 [the trade name], manufactured by Sumitomo Chemical, Limited) was adjusted to 1000 g ai/10a (1.0 g/m^2, 2500 ml Product/10a) as the amount of the active ingredient and to 150 L/10a as the volume of diluent water.
After spreading an agricultural mulch-sheet and opening planting holes (diameter of about 5 cm) for permanent planting through the mulch-sheet, the spray solutions prepared as described above were sprayed onto the planting holes such that the amount of treated active ingredient of chlorothalonil was 1.0 g/m^2 (150 L per 10a) and the amount of each of the remaining spray solutions was 0.5 g/m^2 (150 L per 10a), followed by air-drying; subsequently, seedlings of Chinese cabbage (cultivar Harebutai 65) grown for 4 weeks in cell mold trays (128 holes/nursery box) were planted such that 19 seedlings were planted in each test lot having an area of 2.4 m^2 with two replications.
Preparation was performed by diluting streptomycin (Mycin 20 wettable powder solution [under the trade name] manufactured by Hokko Chemical Industry Co., Ltd.) with water to 1/1000.
In a field spread with the agricultural mulch-sheet, Chinese cabbage seedlings (cultivar: Harebutai 65) grown by the same method as in Example 2 were planted by the same method as in Example 2, for spraying the spray solution of streptomycin prepared above in (1) (at each spray volume of 300 L/10a) twice (27 days and 48 days after the planting of the seedlings) on the stems and leaves with a sprayer.
64 days after the start of the tests, all the plants in each lot were examined about the severity level of the disease to assess the frequency of the disease and the disease control value. In the same manner as described above, the frequency of the disease and the disease control value were determined. Additionally, soft rot is a disease with damages hardly controlled, so even a chemical at the level C determined by the tests of the effects can practically be used.

[5] = active ingredient concentration of 10 ppm

[H]/N=C(/N)N[C@H]1[C@H](O)[C@@H](O)[C@H](O[C@@H]2O[C@@H](C)[C@](O)(C=O)[C@H]2O[C@@H]2O[C@@H](CO)[C@H](O)[C@@H](O)[C@@H]2NC)[C@@H](N/C(N)=N\[H])[C@@H]1O [Streptomycin]
formed colonies (growth state), grade ([1]; 1 ppm active ingredient): −, − | formed colonies (growth state), grade ([1]; 10 ppm active ingredient): −, − | direct antibacterial activity against Erwinia carotovora (in words) ([1]; active ingredient concentration of 1 ppm): exerted a direct antibacterial activity | formed colonies (growth state), grade ([2]; 1 ppm active ingredient): +, ± | formed colonies (growth state), grade ([2]; 10 ppm active ingredient): −, − | direct antibacterial activity against Erwinia carotovora (in words) [2, 5]: exerted a direct antibacterial activity | formed colonies (growth state), grade ([3]; 1 ppm active ingredient): +, + | formed colonies (growth state), grade ([3]; 10 ppm active ingredient): −, ± | direct antibacterial activity against Erwinia carotovora (in words) [3, 5]: exerted a direct antibacterial activity | Determination of effect [4]: B (B: Effective (41 to 60 disease control value))
